{"source": "patent EP4230620A1", "about": "“SUBSTITUTED N-AMINO-N-BENZOIC ACID URACILS, THEIR SALTS AND USE OF SAID COMPOUNDS AS HERBICIDAL AGENTS” (Bayer Aktiengesellschaft, priority 2022, dated 2023)", "assay_type_in_all_cases": "in vivo", "key": {"[1]": {"tested_on": "Digitaria sanguinalis", "assay": "Post-emergence herbicidal action in greenhouse against DIGSA", "conditions": "20 g/ha, visual rating after ca. 3 weeks", "source_text": "(§1) Biologische Beispiele: • Die folgenden Abkürzungen werden für die in den folgenden Tabellen aufgeführten Kultur- und Schadpflanzen verwendet: ABUTH: Abutilon theophrasti ALOMY: Alopecurus myosuroides AMARE: Amaranthus retroflexus BRSNS: Brassica napus DIGSA: Digitaria sanguinalis ECHCG: Echinochloa crus-galli GLXMA: Glycine max KCHSC: Kochia scoparia LOLRI: Lolium rigidum MATIN: Matricaria inodora ORYZA: Oryza sativa PHPBU: Pharbitis purpurea POLCO: Polygonum convolvulus SETVI: Setaria viridis VERPE: Veronica persica VIOTR: Viola tricolor TRZAS: Triticum aestivum ZEAMX: Zea mays • A. Herbizide Wirkung im Nachauflauf\n(§2) Samen von mono- bzw. dikotylen Unkrautpflanzen wurden in Kunststoff- oder Holzfasertöpfen in sandigem Lehmboden ausgelegt, mit Erde abgedeckt und im Gewächshaus unter kontrollierten Wachstumsbedingungen angezogen. 2 bis 3 Wochen nach der Aussaat wurden die Versuchspflanzen im Einblattstadium behandelt. Die in Form von benetzbaren Pulvern (WP) oder als Emulsionskonzentrate (EC) formulierten erfindungsgemäßen Verbindungen wurden dann als wässrige Suspension bzw. Emulsion unter Zusatz von 0,5% Additiv mit einer Wasseraufwandmenge von umgerechnet 600 l/ha auf die grünen Pflanzenteile gesprüht. Nach ca. 3 Wochen Standzeit der Versuchspflanzen im Gewächshaus, unter optimalen Wachstumsbedingungen, wurde die Wirkung der Präparate visuell im Vergleich zu unbehandelten Kontrollen bonitiert. Beispielsweise bedeutet 100% Wirkung = Pflanzen sind abgestorben, 0% Wirkung = wie Kontrollpflanzen.\n(§3) In den nachstehenden Tabellen A1 bis A11 sind die Wirkungen ausgewählter Verbindungen der allgemeinen Formel (I) gemäß der Tabelle 1 auf verschiedene Schadpflanzen und einer Aufwandmenge entsprechend 20 g/ha und niedriger, die gemäß zuvor genannter Versuchsvorschrift erhalten wurden, dargestellt. Tabelle A1a: Nachauflaufwirkung bei 1,25 g/ha gegen ABUTH in %"}, "[2]": {"tested_on": "Matricaria inodora", "assay": "Post-emergence herbicidal action in greenhouse against MATIN", "conditions": "20 g/ha, visual rating after ca. 3 weeks", "source_text": "as §1, §2, §3"}, "[3]": {"tested_on": "Veronica persica", "assay": "Post-emergence herbicidal action in greenhouse against VERPE", "conditions": "20 g/ha, visual rating after ca. 3 weeks", "source_text": "as §1, §2, §3"}, "[4]": {"tested_on": "Pharbitis purpurea", "assay": "Post-emergence herbicidal action in greenhouse against PHBPU", "conditions": "visual rating after ca. 3 weeks", "source_text": "as §1, §2, §3"}, "[5]": {"tested_on": "Zea mays", "assay": "Post-emergence action on crop plants in greenhouse, ZEAMX", "conditions": "1,25 g/ha, crop plant, post-emergence, visual rating after ca. 3 weeks; 100% = plants dead, 0% = like control plants", "source_text": "as §1\nas §2, with “Kulturpflanzen” for “Unkrautpflanzen”\nas §3, with “B1” for “A1”, “B4” for “A11”, “Kulturpflanzen” for “Schadpflanzen”, “B1a:” for “A1a:”, “ZEAMX” for “ABUTH”"}, "[6]": {"tested_on": "Oryza sativa", "assay": "Post-emergence action on crop plants in greenhouse, ORYZA", "conditions": "crop plant, visual rating after ca. 3 weeks, 100% = plants dead, 0% = like control plants", "source_text": "as §1\nas §2, with “Kulturpflanzen” for “Unkrautpflanzen”\nas §3, with “B1” for “A1”, “B4” for “A11”, “Kulturpflanzen” for “Schadpflanzen”, “B1a:” for “A1a:”, “ZEAMX” for “ABUTH”"}, "[7]": {"tested_on": "Triticum aestivum", "assay": "Post-emergence action on crop plants in greenhouse, TRZAS", "conditions": "crop plant, visual rating after ca. 3 weeks, 100% = plants dead, 0% = like control plants", "source_text": "as §1\nas §2, with “Kulturpflanzen” for “Unkrautpflanzen”\nas §3, with “B1” for “A1”, “B4” for “A11”, “Kulturpflanzen” for “Schadpflanzen”, “B1a:” for “A1a:”, “ZEAMX” for “ABUTH”"}, "[8]": {"tested_on": "Brassica napus", "assay": "Post-emergence action on crop plants in greenhouse, BRSNS", "conditions": "crop plant; 1,25 g/ha; post-emergence spray, 600 l/ha water; visual rating after ca. 3 weeks vs untreated controls; 100% = plants dead, 0% = like control plants", "source_text": "as §1\nSamen von mono- bzw. dikotylen Kulturpflanzen wurden in Kunststoff- oder Holzfasertöpfen in sandigem Lehmboden ausgelegt, mit Erde abgedeckt und im Gewächshaus unter kontrollierten Wachstumsbedingungen angezogen. 2 bis 3 Wochen nach der Aussaat wurden die Versuchspflanzen im Einblattstadium behandelt. Die in Form von benetzbaren Pulvern (WP) oder als Emulsionskonzentrate (EC) formulierten erfindungsgemäßen Verbindungen wurden dann als wässrige Suspension bzw. Emulsion unter Zusatz von 0,5% Additiv mit einer Wasseraufwandmenge von umgerechnet 600 l/ha auf die grünen Pflanzenteile gesprüht. […]"}, "[9]": {"tested_on": "Amaranthus retroflexus", "assay": "Post-emergence herbicidal action in greenhouse against AMARE", "conditions": "post-emergence spray, 600 l/ha water, visual rating after ca. 3 weeks vs untreated controls, 100% = plants dead, 0% = like control plants", "source_text": "as §1, §2, §3"}, "[10]": {"tested_on": "Setaria viridis", "assay": "Post-emergence herbicidal action in greenhouse against SETVI", "conditions": "visual rating after ca. 3 weeks", "source_text": "as §1, §2, §3"}, "[11]": {"tested_on": "Polygonum convolvulus", "assay": "Post-emergence herbicidal action in greenhouse against POLCO", "conditions": "visual rating after ca. 3 weeks", "source_text": "as §1, §2, §3"}, "[12]": {"tested_on": "Viola tricolor", "assay": "Post-emergence herbicidal action in greenhouse against VIOTR", "conditions": "visual rating after ca. 3 weeks", "source_text": "as §1, §2, §3"}}, "data": [{"smiles": "CC(C)(OC(=O)c1cc(-n2c(=O)cc(C(F)(F)F)n(N)c2=O)ccc1Cl)C(=O)O", "note": "[I.2-481, 2-({5-[3-Amino-2,6-dioxo-4-(trifluormethyl)-3,6-dihydropyrimidin-1(2H)-yl]-2-chlorbenzoyl}oxy)-2-methylpropansäure]", "values": [{"measurement": "Nachauflaufwirkung gegen DIGSA", "setting": "[1]", "result": 100, "unit": "%"}, {"measurement": "Nachauflaufwirkung gegen MATIN", "setting": "[2]", "result": 100, "unit": "%"}, {"measurement": "Nachauflaufwirkung gegen VERPE", "setting": "[3]", "result": 100, "unit": "%"}, {"measurement": "Nachauflaufwirkung gegen PHBPU", "setting": "[4]; 5 g/ha", "result": 100, "unit": "%"}, {"measurement": "Nachauflaufwirkung gegen PHBPU", "setting": "[4]; 20 g/ha", "result": 100, "unit": "%"}, {"measurement": "Nachauflaufwirkung gegen ZEAMX", "setting": "[5]", "result": 20, "unit": "%"}, {"measurement": "Nachauflaufwirkung gegen ORYZA", "setting": "[6]; 1,25 g/ha", "result": 0, "unit": "%"}, {"measurement": "Nachauflaufwirkung gegen ORYZA", "setting": "[6]; 5 g/ha", "result": 0, "unit": "%"}, {"measurement": "Nachauflaufwirkung gegen ORYZA", "setting": "[6]; 20 g/ha", "result": 0, "unit": "%"}, {"measurement": "Nachauflaufwirkung gegen TRZAS", "setting": "[7]; 1,25 g/ha", "result": 0, "unit": "%"}, {"measurement": "Nachauflaufwirkung gegen TRZAS", "setting": "[7]; 5 g/ha", "result": 0, "unit": "%"}, {"measurement": "Nachauflaufwirkung gegen TRZAS", "setting": "[7]; 20 g/ha", "result": 20, "unit": "%"}, {"measurement": "Nachauflaufwirkung gegen BRSNS", "setting": "[8]", "result": 0, "unit": "%"}, {"measurement": "Nachauflaufwirkung gegen AMARE", "setting": "[9]; 1,25 g/ha", "result": 90, "unit": "%"}, {"measurement": "Nachauflaufwirkung gegen AMARE", "setting": "[9]; 5 g/ha", "result": 100, "unit": "%"}, {"measurement": "Nachauflaufwirkung gegen AMARE", "setting": "[9]; 20 g/ha", "result": 100, "unit": "%"}, {"measurement": "Nachauflaufwirkung gegen SETVI", "setting": "[10]; 1,25 g/ha", "result": 80, "unit": "%"}, {"measurement": "Nachauflaufwirkung gegen SETVI", "setting": "[10]; 5 g/ha", "result": 90, "unit": "%"}, {"measurement": "Nachauflaufwirkung gegen SETVI", "setting": "[10]; 20 g/ha", "result": 100, "unit": "%"}, {"measurement": "Nachauflaufwirkung gegen POLCO", "setting": "[11]; 5 g/ha", "result": 100, "unit": "%"}, {"measurement": "Nachauflaufwirkung gegen POLCO", "setting": "[11]; 20 g/ha", "result": 100, "unit": "%"}, {"measurement": "Nachauflaufwirkung gegen VIOTR", "setting": "[12]; 5 g/ha", "result": 80, "unit": "%"}, {"measurement": "Nachauflaufwirkung gegen VIOTR", "setting": "[12]; 20 g/ha", "result": 100, "unit": "%"}]}]}
